{
  "source": "patent US20090082408A1",
  "about": "“NOVEL HETEROCYCLIC DERIVATIVES” (priority 2005, published 2009)",
  "key": {"[1]": {"test_system": "streptozotocin induced diabetic mice", "assay": "Antidiabetic activity in streptozotocin induced diabetic mice", "type": "in vivo", "details": "50 mg/kg body weight, oral route, 7 days, female Swiss albino mice, fasted 6 hours", "method": "Antidiabetic Activity in Streptozotocin Induced Diabetic Mice\nFemale Swiss albino mice, at the age of 10 weeks were used in the study. Diabetes was induced in the animals by injecting streptozotocin by i.p. route at a dose of 200 mg/kg body weight. 48 hours after streptozotocin administration, the animals were kept fasting for 6 hours. Subsequently blood was collected, plasma separated and the glucose was estimated. Animals showing greater than 200 mg/dl glucose levels were considered as diabetic and these animals were randomly distributed into various groups. The example 2 listed in the table 2 was administered at a dose of 50-mg/kg body weight by oral route for 7 days. Later the animals were fasted for 6 hours, the blood was collected and the plasma was separated. Biochemical estimations like glucose, cholesterol and triglycerides were carried out using the plasma. The effect of the compounds mentioned in the table was expressed in terms of percentage reduction in biochemical values as compared to the control group."}, "[2]": {"test_system": "3T3-L1 cells", "assay": "Glucose uptake assay using 3T3-L1 cells", "type": "cell-based", "details": "14C deoxyglucose uptake in differentiated 3T3-L1 adipocytes; 1 μM for 72 hours; relative to reference compound BLX-1002", "method": "Glucose Uptake Assay Using 3T3-L1 Cells\n3T3-L1 cells were differentiated by the addition of differentiation cocktail (72 μg/ml insulin, 0.5 mM IBMX, 400 ng/ml Dexamethasone) for 4 days and were later fed with media without the differentation cocktail for 7-8 days. After differentiation the cells were incubated with the either the reference compound BLX-1002 or with the compounds listed in the table 1 at 1 μM concentrations for 72 hours, and the glucose uptake assay was carried out for 10 minutes by the addition of KRP buffer supplemented with 2.5 μCi/ml ^14C deoxy glucose. Stimulation Index is defined as the amount of ^14C Deoxyglucose uptake induced by 1 μM of BLX-1002 incubated for 72 hours in an assay condition as per the protocol described above with differentiated 3T3-L1 adipocytes. The values for compounds mentioned in table-1 are with reference to the stimulation index of reference compound BLX-1002."}},
  "note": "Structures can show the parent of a compound that is named as a salt.",
  "data": [
    {"smiles": "COC(=O)[C@@H](N)Cc1ccc(Oc2ccc(Nc3ccccn3)cc2)cc1", "note": "[Example 2, Methyl (2S)-2-amino-3-{4-[4-(pyridin-2-ylamino)phenoxy]phenyl}propanoate dihydrochloride]", "values": [
      {"measurement": "% Reduction Glucose", "setting": "[1]; plasma glucose vs control group", "result": 52.4, "unit": "%"},
      {"measurement": "% Reduction Triglyceride", "setting": "[1]; plasma triglyceride vs control group", "result": 49.6, "unit": "%"}
    ]},
    {"smiles": "COC(=O)C(N)Cc1ccc(Oc2ccc(Nc3ccccn3)cc2)cc1", "note": "(stereo not drawn) [Example 1, Methyl-2-amino-3-{4-[4-(pyridin-2-ylamino)phenoxy]phenyl}propionate dihydrochloride]", "values": [
      {"measurement": "Stimulation Index", "setting": "[2]", "result": 1.10}
    ]}
  ]
}
